Consider 16 molecules from patent US20240400591A1 (Jacobio Pharmaceuticals Co., Ltd., priority 2021, published 2024).

In experiment [1] the target is T1, His-p53 Y220C (94-294) protein (Homo sapiens, UniProt P04637, Y220C).
T1 construct: His-p53 Y220C (94-294) protein
As to the kind of experiment: In vitro DNA binding assay (HTRF). The following applies: % activation normalized to 2 μM Ref-1a high control. It counts as biochemical. Background: TR-FRET usually uses a lanthanide donor and a delayed reading to cut background.

The subject of the next experiment is NUGC3 (P53 Y220C). Put plainly: Cell viability assay (CellTiter-Glo, 6 days), NUGC3. Format: cell-based. The settings on record: cell viability, 6 days, CellTiter-Glo, read-out: NUGC3 (P53 Y220C) IC50. The essentials: (§1)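 After a 6-day compound exposure following overnight plating, ATP luminescence (CellTiter-Glo) gave percent viability relative to DMSO-treated cells and cell-free medium controls. IC50 = concentration at 50% viability, from 4-parameter logistic or Excel fit.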

The test system of the next experiment is NUGC4 (P53 WT). As to the kind of experiment: Cell viability assay (CellTiter-Glo, 6 days), NUGC4. It counts as cell-based. The settings on record: cell viability, 6 days, CellTiter-Glo, read-out: NUGC4 (P53 WT) IC50. The essentials: as §1
In general terms: In ATP-based viability assays light output follows the ATP content of the culture.

The test system of experiment [2] is NUGC-3_P53_Luc single clonal cell line (p53 Y220C). As to the kind of experiment: Reporter gene assay (p53 RE luciferase). It counts as cell-based. The following applies: luciferase reporter, 6 hours, normalized to Ref-1a (10 μM) high control, read-out: p53(Y220C)_NUGC-3 EC50. The procedure, abridged:
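Luminescence normalised to DMSO-only (0%) and 10 μM Ref-1a (100%) wells gives % activity, fitted by 4-parameter logistic or Excel to yield EC50 at 50%. Reporter line: NUGC-3 with p53 response element-luc2P, compound-treated 6 h at 37 °C.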
In general terms: A reporter such as luciferase makes a cellular process visible.

Like-named read-outs stand apart in the source and are kept apart here.

With `COc1cc(P(C)(C)=O)ccc1NCC#Cc1sc2c(NC3CCN(CC4CC4)C[C@@H]3F)cccc2c1CC(F)(F)F` (mixture of isomers) [Example 102, (4-((3-(7-(((Z)-1-(cyclopropylmethyl)-3-fluoropiperidin-4-yl)amino)-3-(2,2,2-trifluoroethyl)benzo[b]thiophen-2-yl)prop-2-yn-1-yl)amino)-3-methoxyphenyl)dimethylphosphine oxide], the EC50 – broadly, the concentration that produces a half-maximal response – in experiment [1] stood at 64 nM; in experiment [2] (Homo sapiens, NUGC-3), 110 nM. The concentration for half-maximal inhibition (IC50) – broadly, the midpoint of a concentration-inhibition curve – in the experiment with NUGC3 (P53 Y220C) (Homo sapiens, NUGC-3, 144 h) amounted to 810 nM; in the experiment with NUGC4 (P53 WT) (Homo sapiens, NUGC-4, 144 h), 1920 nM.

For `COc1cc(P(C)(C)=O)ccc1NCC#Cc1sc2c(NC3CCN(C)CC3F)cccc2c1CC(F)(F)F` (stereo not shown) [Example 15, (4-((3-(7-(((Z)-3-fluoro-1-methylpiperidin-4-yl)amino)-3-(2,2,2-trifluoroethyl)benzo[b]thiophen-2-yl)prop-2-yn-1-yl)amino)-3-methoxyphenyl)dimethylphosphine oxide], the EC50 came to 34 nM in experiment [1] and 310 nM in experiment [2]. Also, the IC50 with NUGC3 (P53 Y220C) is 360 nM; with NUGC4 (P53 WT) it was 6990 nM.

Turning to `CN1CCC(Nc2cccc3c(CC(F)(F)F)c(C#CCNc4ccc(P(C)(C)=O)cc4OC(F)F)sc23)C(F)C1` (stereo not shown) [Example 64, (3-(difluoromethoxy)-4-((3-(7-(((Z)-3-fluoro-1-methylpiperidin-4-yl)amino)-3-(2,2,2-trifluoroethyl)benzo[b]thiophen-2-yl)prop-2-yn-1-yl)amino)phenyl)dimethylphosphine oxide], the values for the half-maximal effective concentration (EC50) in experiment [1] and in experiment [2] were 44 nM and 150 nM, respectively. The 50% inhibitory concentration (IC50) with NUGC3 (P53 Y220C) was 980 nM; in the experiment on NUGC4 (P53 WT), 13600 nM.

Take `COc1cc(P(C)(C)=O)ccc1NCC#Cc1sc2c(N[C@@H]3CCN(C4CCC4)C[C@@H]3F)cccc2c1CC(F)(F)F` (racemic) [Example 103, (4-((3-(7-(((Z)-1-cyclobutyl-3-fluoropiperidin-4-yl)amino)-3-(2,2,2-trifluoroethyl)benzo[b]thiophen-2-yl)prop-2-yn-1-yl)amino)-3-methoxyphenyl)dimethylphosphine oxide]: the concentration for a half-maximal effect (EC50) is 91 nM in experiment [1] and 210 nM in experiment [2] (Homo sapiens, NUGC-3). Also, the IC50 in the experiment on NUGC3 (P53 Y220C) (Homo sapiens, NUGC-3, 144 h) came out at 1280 nM; with NUGC4 (P53 WT) (Homo sapiens, NUGC-4, 144 h), 2650 nM.

Take `CN1CC[C@@H](Nc2cccc3c(CC(F)(F)F)c(C#CCNc4ccc(P(C)(C)=O)cc4C(=O)NC4CC4)sc23)[C@@H](F)C1` [Example 215, N-cyclopropyl-5-(dimethylphosphoryl)-2-((3-(7-(((3S,4R)-3-fluoro-1-methylpiperidin-4-yl)amino)-3-(2,2,2-trifluoroethyl)benzo[b]thiophen-2-yl)prop-2-yn-1-yl)amino)benzamide]: the 50% effective concentration (EC50) is 42 nM in experiment [1] and 140 nM in experiment [2] (Homo sapiens, NUGC-3). Moreover, the IC50 was 370 nM with NUGC3 (P53 Y220C) (Homo sapiens, NUGC-3, 144 h) and 37300 nM in the experiment with NUGC4 (P53 WT) (Homo sapiens, NUGC-4, 144 h).

For the molecule `COc1cc(P(C)(C)=O)ccc1NCC#Cc1sc2c(NC3CC4(C3)CN(C)C4)cccc2c1CC(F)(F)F` [Example 189, (3-methoxy-4-((3-(7-((2-methyl-2-azaspiro[3.3]heptan-6-yl)amino)-3-(2,2,2-trifluoroethyl)benzo[b]thiophen-2-yl)prop-2-yn-1-yl)amino)phenyl)dimethylphosphine oxide], the EC50 in experiment [1] stood at 45 nM; in experiment [2] (Homo sapiens, NUGC-3), 700 nM. Moreover, the half-inhibitory concentration (IC50) in the experiment with NUGC3 (P53 Y220C) (Homo sapiens, NUGC-3, 144 h) was 3640 nM; in the experiment with NUGC4 (P53 WT) (Homo sapiens, NUGC-4, 144 h), 8670 nM.

For `COc1cc(P(C)(C)=O)ccc1NCC#Cc1sc2c(N[C@@H]3CCN(C4CCCC4)C[C@@H]3F)cccc2c1CC(F)(F)F` (relative stereo) [Example 104, (4-((3-(7-(((Z)-1-cyclopentyl-3-fluoropiperidin-4-yl)amino)-3-(2,2,2-trifluoroethyl)benzo[b]thiophen-2-yl)prop-2-yn-1-yl)amino)-3-methoxyphenyl)dimethylphosphine oxide], the EC50 came to 82 nM in experiment [1] and 240 nM in experiment [2] (Homo sapiens, NUGC-3). In addition, the IC50 was found to be 1380 nM with NUGC3 (P53 Y220C) (Homo sapiens, NUGC-3, 144 h) and 1750 nM with NUGC4 (P53 WT) (Homo sapiens, NUGC-4, 144 h).

As to `COc1cc(P(C)(C)=O)ccc1NCC#Cc1sc2c(NC3CCN(C)CC34CC4)cccc2c1CC(F)(F)F` (stereo not shown) [Example 89, (3-methoxy-4-((3-(7-((5-methyl-5-azaspiro[2.5]octan-8-yl)amino)-3-(2,2,2-trifluoroethyl)benzo[b]thiophen-2-yl)prop-2-yn-1-yl)amino)phenyl)dimethylphosphine oxide], the EC50 was 53 nM in experiment [1] and 230 nM in experiment [2] (Homo sapiens, NUGC-3). Besides, the IC50 worked out at 820 nM with NUGC3 (P53 Y220C) (Homo sapiens, NUGC-3, 144 h) and 4540 nM in the experiment with NUGC4 (P53 WT) (Homo sapiens, NUGC-4, 144 h).

For `CN1CCC(Nc2cccc3c(CC(F)(F)F)c(C#CCNc4ccc(P(C)(C)=O)c5c4OCC5)sc23)C(F)C1` (stereo not shown) [Example 152, (7-((3-(7-(((Z)-3-fluoro-1-methylpiperidin-4-yl)amino)-3-(2,2,2-trifluoroethyl)benzo[b]thiophen-2-yl)prop-2-yn-1-yl)amino)-2,3-dihydrobenzofuran-4-yl)dimethylphosphine oxide], the EC50 is 19 nM in experiment [1] and 120 nM in experiment [2]. Further, the IC50 stood at 1020 nM in the experiment with NUGC3 (P53 Y220C) and 6690 nM in the experiment with NUGC4 (P53 WT).

In the case of `COc1cc(P(C)(C)=O)ccc1NCC#Cc1sc2c(N[C@@H]3CCN(C4CC4)C[C@@H]3F)cccc2c1CC(F)(F)F` (racemic) [Example 74, (4-((3-(7-(((Z)-1-cyclopropyl-3-fluoropiperidin-4-yl)amino)-3-(2,2,2-trifluoroethyl)benzo[b]thiophen-2-yl)prop-2-yn-1-yl)amino)-3-methoxyphenyl)dimethylphosphine oxide], the EC50 in experiment [1] turned out to be 127 nM; in experiment [2] (Homo sapiens, NUGC-3) it was 250 nM. The IC50 stood at 2050 nM in the experiment on NUGC3 (P53 Y220C) (Homo sapiens, NUGC-3, 144 h) and 2730 nM in the experiment with NUGC4 (P53 WT) (Homo sapiens, NUGC-4, 144 h).

Regarding `CN1CC[C@@H](Nc2cccc3c(CC(F)(F)F)c(C#CCNc4ccc(P(C)(C)=O)cc4Cl)sc23)[C@@H](F)C1` (racemic) [Example 83, (3-chloro-4-((3-(7-(((Z)-3-fluoro-1-methylpiperidin-4-yl)amino)-3-(2,2,2-trifluoroethyl)benzo[b]thiophen-2-yl)prop-2-yn-1-yl)amino)phenyl)dimethylphosphine oxide], the EC50 turned out to be 40 nM in experiment [1] and 210 nM in experiment [2] (Homo sapiens, NUGC-3, 6 h). In addition, the IC50 came out at 1310 nM in the experiment on NUGC3 (P53 Y220C) (Homo sapiens, NUGC-3, 144 h) and 7960 nM in the experiment on NUGC4 (P53 WT) (Homo sapiens, NUGC-4, 144 h).

For the molecule `COc1cc(C(N)=O)ccc1NCC#Cc1sc2c(NC3CCN(C)CC3F)cccc2c1CC(F)(F)F` (stereo not shown) [Example 46, 4-((3-(7-(((Z)-3-fluoro-1-methylpiperidin-4-yl)amino)-3-(2,2,2-trifluoroethyl)benzo[b]thiophen-2-yl)prop-2-yn-1-yl)amino)-3-methoxybenzamide], the figures for the EC50 in experiment [1] and in experiment [2] were 47 nM and 170 nM, respectively. Besides, the results for the IC50 in the experiment with NUGC3 (P53 Y220C) and with NUGC4 (P53 WT) were 1350 nM and 10500 nM, respectively.

In the case of `CNC(=O)c1cc(NCC#Cc2sc3c(NC4CCN(C)CC4F)cccc3c2CC(F)(F)F)c(OC)cc1P(C)(C)=O` (racemic) [Example 109, 2-dimethylphosphoryl-5-[3-[7-[((Z)-3-fluoro-1-methyl-4-piperidyl)amino]-3-(2,2,2-trifluoroethyl)benzothiophen-2-yl]prop-2-ynylamino]-4-methoxy-N-methyl-benzamide], the EC50 worked out at 33 nM in experiment [1] and 120 nM in experiment [2] (Homo sapiens, NUGC-3). Besides, the 50% inhibitory concentration (IC50) in the experiment on NUGC3 (P53 Y220C) (Homo sapiens, NUGC-3, 144 h) turned out to be 1190 nM; in the experiment with NUGC4 (P53 WT) (Homo sapiens, NUGC-4, 144 h) it was 47700 nM.

For the molecule `COc1cc(N2CCOCC2=O)ccc1NCC#Cc1sc2c(NC3CCN(C)CC3F)cccc2c1CC(F)(F)F` (stereo not shown) [Example 192, 4-(4-((3-(7-((3-fluoro-1-methylpiperidin-4-yl)amino)-3-(2,2,2-trifluoroethyl)benzo[b]thiophen-2-yl)prop-2-yn-1-yl)amino)-3-methoxyphenyl)morpholin-3-one], the EC50 in experiment [1] worked out at 34 nM; in experiment [2] (Homo sapiens, NUGC-3), 130 nM. Moreover, the IC50 was determined as 1190 nM in the experiment with NUGC3 (P53 Y220C) (Homo sapiens, NUGC-3, 144 h) and 7610 nM with NUGC4 (P53 WT) (Homo sapiens, NUGC-4, 144 h).

Regarding `CN1CCC(Nc2cccc3c(CC(F)(F)F)c(C#CCNc4ccc(P(C)(C)=O)cc4OCF)sc23)C(F)C1` (stereo not shown) [Example 10, (4-((3-(7-(((Z)-3-fluoro-1-methylpiperidin-4-yl)amino)-3-(2,2,2-trifluoroethyl)benzo[b]thiophen-2-yl)prop-2-yn-1-yl)amino)-3-(fluoromethoxy)phenyl)dimethylphosphine oxide], the figures for the EC50 in experiment [1] and in experiment [2] were 56 nM and 230 nM, respectively. The figures for the IC50 in the experiment with NUGC3 (P53 Y220C) and in the experiment with NUGC4 (P53 WT) were 1680 nM and 21000 nM, respectively.

Turning to `CN1CC[C@@H](Nc2cccc3c(CC(F)(F)F)c(C#CCNc4ccc(P(C)(C)=O)c5c4OCCO5)sc23)[C@@H](F)C1` [Example 193, (8-((3-(7-(((3S,4R)-3-fluoro-1-methylpiperidin-4-yl)amino)-3-(2,2,2-trifluoroethyl)benzo[b]thiophen-2-yl)prop-2-yn-1-yl)amino)-2,3-dihydrobenzo[b][1,4]dioxin-5-yl)dimethylphosphine oxide], the EC50 in experiment [1] amounted to 113 nM; in experiment [2] (Homo sapiens, NUGC-3), 130 nM. Further, the IC50 in the experiment on NUGC3 (P53 Y220C) (Homo sapiens, NUGC-3, 144 h) turned out to be 1220 nM; in the experiment with NUGC4 (P53 WT) (Homo sapiens, NUGC-4, 144 h), 18600 nM.
